Common to all, as to format: cell-based
The test system of test [1] is HPAF-II (a pancreatic cancer cell line). In words: In-vitro cell viability assay (CellTiter-Glo). To be noted: Homo sapiens, 144 h. A general note: Cellular ATP, detected with luciferase, serves as a proxy for viable cell number.
The subject of test [2] is KYSE-520 (an esophageal cancer cell line). In words: In-vitro cell viability assay (CellTiter-Glo). To be noted: Homo sapiens.
In test [3] the test system is MCF-7 (a breast cancer cell line). In words: In-vitro cell viability assay (CellTiter-Glo). To be noted: MCF7a, 144 h.
The subject of test [4] is A431 (a skin cancer cell line). The test can be described thus: In-vitro cell viability assay (CellTiter-Glo). To be noted: Homo sapiens, A-431, 144 h.
The test system of test [5] is Caski (a cervical cancer cell line). In words: In-vitro cell viability assay (CellTiter-Glo). To be noted: Homo sapiens, Ca-Ski, 144 h.
The subject of test [6] is T47D (a breast cancer cell line). In words: cells. To be noted: Homo sapiens, 144 h.
Where [7] appears, read: 6 days incubation, read-out: IC50.

Molecules are shown by their SMILES. Like-named read-outs stand apart in the source and are kept apart here. Where a SMILES comes first, the peptide text is derived from it. [ ]: non-standard residue; d: D form. The star is where a group is joined. Dolaproine = CO[C@@H]([C@@H]1CCCN1)[C@@H](C)C(=O)O; Dil = CC[C@H](C)[C@H](NC)[C@@H](CC(=O)O)OC; X1 = C[C@@H](N*)[C@@H](O)c1ccccc1; NMeV = CN[C@H](C(=O)O)C(C)C

On to `CC[C@H](C)[C@@H]([C@@H](CC(=O)N1CCC[C@H]1[C@H](OC)[C@@H](C)C(=O)N[C@H](C)[C@@H](O)c1ccccc1)OC)N(C)C(=O)[C@@H](NC(=O)[C@@H](NC)C(C)C)C(C)C` [MMAE, monomethyl auristatin E] (H-[NMeV]V[Dil][Dolaproine]-X1), for which the IC50 was determined as 45 pM in test [1] (setting [7]); 120 pM in test [2] (144 h, KYSE-520, 6 days incubation, read-out: IC50); 820 pM in test [3] (MCF-7, 6 days incubation, read-out: IC50); 32 pM in test [4] (A431, 6 days incubation, read-out: IC50); 34 pM in test [5] (Caski, 6 days incubation, read-out: IC50); 160 pM in test [6] (setting [7]).
Regarding `CC[C@@]1(O)C(=O)OCc2c1cc1n(c2=O)Cc2c-1nc1cc3c(c4c1c2[C@@H](NC(=O)[C@@H](C)O)CC4)OCO3` [PBX-7016], the IC50 in test [1] came out at 2870 pM; in test [2] (KYSE-520, 144 h), 2060 pM; in test [3] it was 6020 pM; in test [4], 1940 pM; in test [5], 750 pM; in test [6] it was 460 pM.

The IC50 is the concentration at which inhibition is half-maximal.
